Calls of active or inactive are those of the source. The calls are words filed in the database; no cut-off is given here.
What was measured:
A549 = test: cells; conditions: Homo sapiens, A549, 72 h
Description: Cytotoxicity against human A549 cells assessed as inhibition of cell growth incubated for 72 hrs by MTT assay

HT-29 [1] = test: Antitumor activity against human HT-29 cells xenografted in BALB/c nude mouse assessed as tumor growth inhibition at 7.5 mg/kg, ip administered once a day for 24 days relative to control; type: functional; conditions: HT-29, 576 h, time 24 day, read-out: TGI
PANC-1 [2] = test: Induction of apoptosis in human PANC-1 cells assessed as apoptotic cells at 2 uM incubated for 24 hrs by flow cytometric analysis relative to control; type: functional
Histone deacetylase 9 = Histone deacetylase 9 (Homo sapiens, UniProt Q9UKV0); test: Inhibition of HDAC9 (unknown origin)
Histone deacetylase 2 = Histone deacetylase 2 (Homo sapiens, UniProt Q92769); test: Inhibition of HDAC2 (unknown origin)
L02 = test: cells; conditions: Homo sapiens, L02, 72 h
Description: Cytotoxicity against human L02 cells assessed as inhibition of cell growth incubated for 72 hrs by MTT assay

Histone deacetylase 11 = Histone deacetylase 11 (Homo sapiens, UniProt Q96DB2); test: Inhibition of HDAC11 (unknown origin)
[3] = molecular target: Protein deacetylase HDAC6 (Homo sapiens, UniProt Q9UBN7); test: Inhibition of HDAC6 (unknown origin)
HT-29 [4] = test: Antitumor activity against human HT-29 cells xenografted in BALB/c nude mouse assessed as tumor growth inhibition at 7.5 mg/kg, ip administered once a day for 24 days in presence of SAHA relative to control; type: functional; conditions: HT-29, 576 h, time 24 day, read-out: TGI
PANC-1 [5] = test: Induction of apoptosis in human PANC-1 cells assessed as increase in cleaved caspase-9 expression level at 2 uM incubated for 24 hrs by Western blot analysis; type: functional, cell-based
PANC-1 [6] = test: Induction of apoptosis in human PANC-1 cells assessed as increase in cleaved PARP expression level at 2 uM incubated for 24 hrs by Western blot analysis; type: functional, cell-based
Histone deacetylase 5 = Histone deacetylase 5 (Homo sapiens, UniProt Q9UQL6); test: Inhibition of HDAC5 (unknown origin)
A-431 = test: cells; conditions: Homo sapiens, A-431, 72 h
Description: Cytotoxicity against human A-431 cells assessed as inhibition of cell growth incubated for 72 hrs by MTT assay

NCI-H1975 = test: cells; conditions: Homo sapiens, NCI-H1975, 72 h
Description: Cytotoxicity against human NCI-H1975 cells assessed as inhibition of cell growth incubated for 72 hrs by MTT assay

PANC-1 [7] = test: Cell cycle arrest in human PANC-1 cells assessed as accumulation of cells at GO-G1 phase at 2 uM incubated for 24 hrs by PI/RNase staining based flow cytometric analysis; type: functional
MV4-11 = test: cells; conditions: Homo sapiens, MV4-11, 72 h
Description: Cytotoxicity against human MV4-11 cells assessed as inhibition of cell growth incubated for 72 hrs by MTT assay

HT-29 [8] = test: cells; conditions: Homo sapiens, HT-29, 72 h
Description: Cytotoxicity against human HT-29 cells assessed as inhibition of cell growth incubated for 72 hrs by MTT assay

Histone deacetylase 7 = Histone deacetylase 7 (Homo sapiens, UniProt Q8WUI4); test: Inhibition of HDAC7 (unknown origin)
MCF7 = test: cells; conditions: Homo sapiens, MCF7, 72 h
Description: Cytotoxicity against human MCF7 cells assessed as inhibition of cell growth incubated for 72 hrs by MTT assay

PANC-1 [9] = test: Induction of apoptosis in human PANC-1 cells assessed as increase in Cytochrome C expression level at 2 uM incubated for 24 hrs by Western blot analysis; type: functional, cell-based
Histone deacetylase 4 = Histone deacetylase 4 (Homo sapiens, UniProt P56524); test: Inhibition of HDAC4 (unknown origin)
HepG2 = test: cells; conditions: Homo sapiens, HepG2, 72 h
Description: Cytotoxicity against human HepG2 cells assessed as inhibition of cell growth incubated for 72 hrs by MTT assay

PANC-1 [10] = test: cells; conditions: Homo sapiens, PANC-1, 72 h
Description: Cytotoxicity against human PANC-1 cells assessed as inhibition of cell growth incubated for 72 hrs by MTT assay

K562 = test: cells; conditions: Homo sapiens, K562, 72 h
Description: Cytotoxicity against human K562 cells assessed as inhibition of cell growth incubated for 72 hrs by MTT assay

Histone deacetylase 8 = Histone deacetylase 8 (Homo sapiens, UniProt Q9BY41); test: Inhibition of HDAC8 (unknown origin)
PANC-1 [11] = test: Induction of apoptosis in human PANC-1 cells assessed as increase in cleaved caspase-3 expression level at 2 uM incubated for 24 hrs by Western blot analysis; type: functional, cell-based
PANC-1 [12] = test: Induction of apoptosis in human PANC-1 cells assessed as increase in Bax expression at 2 uM incubated for 24 hrs by Western blot analysis; type: functional, cell-based
HT-29 [13] = test: Induction of apoptosis in human HT-29 cells assessed as apoptotic ratio at 2 uM incubated for 24 hrs by flow cytometric analysis; type: functional
Histone deacetylase 1 = Histone deacetylase 1 (Homo sapiens, UniProt Q13547); test: Inhibition of HDAC1 (unknown origin)
Histone deacetylase 3 = Histone deacetylase 3 (Homo sapiens, UniProt O15379); test: Inhibition of HDAC3 (unknown origin)
[14] = molecular target: Polyamine deacetylase HDAC10 (Homo sapiens, UniProt Q969S8); test: Inhibition of HDAC10 (unknown origin)
SGC-7901 = test: cells; conditions: Homo sapiens, SGC-7901, 72 h
Description: Cytotoxicity against human SGC-7901 cells assessed as inhibition of cell growth incubated for 72 hrs by MTT assay

Chain of Histone deacetylase 1 (Q13547 whole entry): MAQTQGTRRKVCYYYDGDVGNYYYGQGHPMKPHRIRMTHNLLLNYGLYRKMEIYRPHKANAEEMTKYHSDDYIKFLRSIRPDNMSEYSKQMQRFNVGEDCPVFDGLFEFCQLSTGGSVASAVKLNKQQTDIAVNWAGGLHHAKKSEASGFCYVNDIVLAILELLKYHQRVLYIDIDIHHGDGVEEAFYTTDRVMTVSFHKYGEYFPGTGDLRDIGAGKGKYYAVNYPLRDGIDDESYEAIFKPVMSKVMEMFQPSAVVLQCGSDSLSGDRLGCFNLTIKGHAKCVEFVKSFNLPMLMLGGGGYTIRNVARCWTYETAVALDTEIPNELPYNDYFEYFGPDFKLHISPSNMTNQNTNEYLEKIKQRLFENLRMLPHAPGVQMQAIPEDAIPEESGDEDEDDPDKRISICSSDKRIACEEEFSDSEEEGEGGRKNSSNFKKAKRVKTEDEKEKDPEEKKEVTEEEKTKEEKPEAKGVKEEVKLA
Chain of Histone deacetylase 7 (Q8WUI4 whole entry): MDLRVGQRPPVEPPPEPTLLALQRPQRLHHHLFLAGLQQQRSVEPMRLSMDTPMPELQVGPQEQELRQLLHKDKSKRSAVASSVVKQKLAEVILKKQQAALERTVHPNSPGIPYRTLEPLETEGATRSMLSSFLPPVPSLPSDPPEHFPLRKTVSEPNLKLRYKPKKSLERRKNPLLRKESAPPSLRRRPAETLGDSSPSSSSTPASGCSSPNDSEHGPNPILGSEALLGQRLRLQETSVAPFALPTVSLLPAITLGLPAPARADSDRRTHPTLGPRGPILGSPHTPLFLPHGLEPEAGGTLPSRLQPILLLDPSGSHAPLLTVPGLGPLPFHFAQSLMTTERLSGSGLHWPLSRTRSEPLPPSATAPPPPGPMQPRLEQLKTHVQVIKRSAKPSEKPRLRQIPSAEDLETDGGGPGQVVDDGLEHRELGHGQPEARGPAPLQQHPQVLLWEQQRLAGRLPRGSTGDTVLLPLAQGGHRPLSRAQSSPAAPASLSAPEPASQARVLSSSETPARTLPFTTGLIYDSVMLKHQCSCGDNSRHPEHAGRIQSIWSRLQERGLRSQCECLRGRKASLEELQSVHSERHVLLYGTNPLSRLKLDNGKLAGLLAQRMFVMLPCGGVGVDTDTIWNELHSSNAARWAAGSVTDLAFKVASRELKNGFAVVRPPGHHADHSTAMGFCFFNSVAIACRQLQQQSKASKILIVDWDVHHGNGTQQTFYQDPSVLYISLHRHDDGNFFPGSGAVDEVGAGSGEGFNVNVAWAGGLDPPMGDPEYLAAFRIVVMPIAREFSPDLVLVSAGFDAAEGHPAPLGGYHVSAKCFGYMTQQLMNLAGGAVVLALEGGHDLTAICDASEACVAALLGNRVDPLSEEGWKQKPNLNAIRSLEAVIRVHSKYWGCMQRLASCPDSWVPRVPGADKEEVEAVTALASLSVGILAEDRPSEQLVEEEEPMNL
Chain of Histone deacetylase 4 (P56524 whole entry): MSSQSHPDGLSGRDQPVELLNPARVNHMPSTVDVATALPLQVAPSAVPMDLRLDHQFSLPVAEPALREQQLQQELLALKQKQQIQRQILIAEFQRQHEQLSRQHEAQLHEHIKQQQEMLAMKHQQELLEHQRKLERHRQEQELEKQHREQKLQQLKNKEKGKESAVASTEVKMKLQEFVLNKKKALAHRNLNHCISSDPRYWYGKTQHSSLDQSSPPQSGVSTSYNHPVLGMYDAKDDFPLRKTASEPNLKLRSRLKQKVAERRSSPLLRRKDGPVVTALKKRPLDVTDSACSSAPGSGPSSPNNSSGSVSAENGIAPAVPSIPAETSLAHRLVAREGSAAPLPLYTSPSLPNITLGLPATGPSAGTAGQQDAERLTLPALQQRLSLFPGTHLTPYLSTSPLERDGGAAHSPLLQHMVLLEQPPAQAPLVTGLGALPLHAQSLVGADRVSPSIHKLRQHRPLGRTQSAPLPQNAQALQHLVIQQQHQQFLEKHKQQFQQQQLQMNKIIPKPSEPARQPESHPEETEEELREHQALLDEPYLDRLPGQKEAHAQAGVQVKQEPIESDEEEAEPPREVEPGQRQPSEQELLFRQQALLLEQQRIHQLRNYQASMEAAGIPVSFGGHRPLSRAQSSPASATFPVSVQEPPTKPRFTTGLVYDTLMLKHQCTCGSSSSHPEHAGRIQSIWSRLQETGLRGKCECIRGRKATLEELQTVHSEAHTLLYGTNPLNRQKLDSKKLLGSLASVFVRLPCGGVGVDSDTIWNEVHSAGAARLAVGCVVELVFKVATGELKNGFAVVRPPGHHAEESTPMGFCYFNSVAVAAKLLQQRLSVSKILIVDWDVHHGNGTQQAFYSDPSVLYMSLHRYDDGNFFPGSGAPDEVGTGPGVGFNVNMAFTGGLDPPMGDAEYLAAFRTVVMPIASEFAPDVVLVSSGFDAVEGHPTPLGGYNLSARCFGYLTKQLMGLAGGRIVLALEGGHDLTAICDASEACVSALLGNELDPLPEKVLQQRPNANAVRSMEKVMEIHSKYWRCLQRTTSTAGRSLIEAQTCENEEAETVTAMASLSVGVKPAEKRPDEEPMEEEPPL
Chain of Histone deacetylase 2 (Q92769 whole entry): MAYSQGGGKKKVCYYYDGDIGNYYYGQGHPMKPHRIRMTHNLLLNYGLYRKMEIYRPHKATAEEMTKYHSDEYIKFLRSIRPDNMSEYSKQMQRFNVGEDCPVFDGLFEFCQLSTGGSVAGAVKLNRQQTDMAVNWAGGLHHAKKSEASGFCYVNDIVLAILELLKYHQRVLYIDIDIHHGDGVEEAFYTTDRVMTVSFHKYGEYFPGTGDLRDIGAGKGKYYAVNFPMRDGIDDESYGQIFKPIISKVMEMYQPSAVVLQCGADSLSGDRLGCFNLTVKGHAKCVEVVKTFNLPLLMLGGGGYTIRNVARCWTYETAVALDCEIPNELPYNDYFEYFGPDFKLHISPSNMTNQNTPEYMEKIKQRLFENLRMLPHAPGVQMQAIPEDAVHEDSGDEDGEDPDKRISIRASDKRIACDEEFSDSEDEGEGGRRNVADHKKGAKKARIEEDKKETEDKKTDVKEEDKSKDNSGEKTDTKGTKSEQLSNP
Chain of Histone deacetylase 9 (Q9UKV0 whole entry): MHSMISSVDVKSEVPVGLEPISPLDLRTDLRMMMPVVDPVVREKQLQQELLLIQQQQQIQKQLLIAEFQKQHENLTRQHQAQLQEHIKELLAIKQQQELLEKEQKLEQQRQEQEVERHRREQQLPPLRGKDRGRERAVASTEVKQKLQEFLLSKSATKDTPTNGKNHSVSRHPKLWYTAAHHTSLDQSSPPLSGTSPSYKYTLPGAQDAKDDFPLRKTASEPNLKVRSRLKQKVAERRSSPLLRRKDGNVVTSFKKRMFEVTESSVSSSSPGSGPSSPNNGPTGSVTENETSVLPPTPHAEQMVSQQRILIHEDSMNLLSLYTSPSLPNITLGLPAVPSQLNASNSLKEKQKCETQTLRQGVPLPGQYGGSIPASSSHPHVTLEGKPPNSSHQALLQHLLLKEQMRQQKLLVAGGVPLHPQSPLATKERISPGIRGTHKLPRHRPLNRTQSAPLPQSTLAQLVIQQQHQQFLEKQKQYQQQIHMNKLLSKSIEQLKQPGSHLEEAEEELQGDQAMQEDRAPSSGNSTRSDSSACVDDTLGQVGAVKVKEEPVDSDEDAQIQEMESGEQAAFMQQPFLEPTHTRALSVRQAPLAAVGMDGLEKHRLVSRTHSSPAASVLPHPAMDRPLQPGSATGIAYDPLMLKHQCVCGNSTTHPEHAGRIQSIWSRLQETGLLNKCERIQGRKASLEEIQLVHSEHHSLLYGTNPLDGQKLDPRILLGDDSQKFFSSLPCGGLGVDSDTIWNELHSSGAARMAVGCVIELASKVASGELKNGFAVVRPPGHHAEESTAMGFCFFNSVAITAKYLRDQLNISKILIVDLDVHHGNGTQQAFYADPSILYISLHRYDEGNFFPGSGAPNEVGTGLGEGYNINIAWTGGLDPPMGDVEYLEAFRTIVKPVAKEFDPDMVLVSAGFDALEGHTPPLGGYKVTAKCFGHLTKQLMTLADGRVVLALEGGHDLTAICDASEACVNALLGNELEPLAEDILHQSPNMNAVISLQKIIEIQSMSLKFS
Chain of Histone deacetylase 11 (Q96DB2 whole entry): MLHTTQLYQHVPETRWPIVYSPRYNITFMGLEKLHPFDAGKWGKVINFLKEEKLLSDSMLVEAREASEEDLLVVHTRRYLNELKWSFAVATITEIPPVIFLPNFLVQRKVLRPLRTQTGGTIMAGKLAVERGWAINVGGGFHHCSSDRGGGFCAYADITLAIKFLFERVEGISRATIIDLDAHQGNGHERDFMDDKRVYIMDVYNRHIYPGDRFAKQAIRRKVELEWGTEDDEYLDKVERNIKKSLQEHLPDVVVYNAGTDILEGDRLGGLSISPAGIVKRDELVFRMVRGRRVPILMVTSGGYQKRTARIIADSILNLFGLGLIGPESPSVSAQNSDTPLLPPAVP
Chain of Histone deacetylase 3 (O15379 whole entry): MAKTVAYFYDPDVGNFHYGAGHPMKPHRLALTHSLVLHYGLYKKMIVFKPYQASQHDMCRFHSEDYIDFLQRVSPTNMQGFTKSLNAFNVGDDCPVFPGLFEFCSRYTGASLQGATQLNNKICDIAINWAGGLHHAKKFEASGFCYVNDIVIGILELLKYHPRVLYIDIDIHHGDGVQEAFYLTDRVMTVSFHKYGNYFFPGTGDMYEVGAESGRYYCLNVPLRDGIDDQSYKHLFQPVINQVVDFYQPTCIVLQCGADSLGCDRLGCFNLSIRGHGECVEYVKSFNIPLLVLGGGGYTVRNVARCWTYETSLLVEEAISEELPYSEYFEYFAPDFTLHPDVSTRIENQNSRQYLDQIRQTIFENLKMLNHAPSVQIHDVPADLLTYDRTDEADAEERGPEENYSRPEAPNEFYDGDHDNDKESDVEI

COc1cc(OC)c(/C=C/S(=O)(=O)Cc2ccc(OC)c(NCC(=O)O)c2)c(OC)c1 [RIGOSERTIB]
IC50 (A549): 370 nM | inhibition in vivo at 7.5 mg/kg (HT-29 [1]): 46% | Activity (PANC-1 [2]): 41.4% | IC50 (Histone deacetylase 9): > 10000 nM | IC50 (Histone deacetylase 2): > 10000 nM | IC50 (L02): > 40000 nM | IC50 (Histone deacetylase 11): > 10000 nM | IC50 [3]: > 10000 nM | inhibition in vivo at 7.5 mg/kg (HT-29 [4]): 77.9% | Activity (PANC-1 [5]): Active | Activity (PANC-1 [6]): Active | IC50 (Histone deacetylase 5): > 10000 nM | IC50 (A-431): 360 nM | IC50 (NCI-H1975): 230 nM | Activity (PANC-1 [7]): Active | IC50 (MV4-11): 1150 nM | IC50 (HT-29 [8]): 160 nM | IC50 (Histone deacetylase 7): > 10000 nM | IC50 (MCF7): 260 nM | Activity (PANC-1 [9]): Active | IC50 (Histone deacetylase 4): > 10000 nM | IC50 (HepG2): 1340 nM | IC50 (PANC-1 [10]): 260 nM | IC50 (K562): 150 nM | IC50 (Histone deacetylase 8): > 10000 nM | Activity (PANC-1 [11]): Active | Activity (PANC-1 [12]): Active | Activity (HT-29 [13]): 34.8% | IC50 (Histone deacetylase 1): > 10000 nM | IC50 (Histone deacetylase 3): > 10000 nM | IC50 [14]: > 10000 nM | IC50 (SGC-7901): 250 nM

Source: ChEMBL document CHEMBL5537193, “Multitargeting HDAC Inhibitors Containing a RAS/RAF Protein Interfering Unit” (J Med Chem, 2024)
